Measured values from US20190254285A1, “SODIUM PHOSPHITE COMBINATIONS” (priority 2016, published 2019).

Tests used:
Format in all cases: in vivo
Botrytis cinerea = Botrytis cinerea rot on wounded apple and banana fruit; design: key: Different results are indicated by different letters; Different results are indicated by different letters; Different results are indicated by different letters; Different results are indicated by different letters; Different results are indicated by different letters
Text: Tested fruit: apple (cv Elstar) and a banana (cv Cavendish) from organic origin/SKAL certified. SKAL is a semi-governmental Dutch organization that controls organic production in the Netherlands.
Used pathogen: Botrytis cinerea spore-suspension containing ˜3×10^5 propagules (spores)/ml.
Application: Fruit peel was damaged with a cork borer, depth ˜0.5 cm into the fruit, 2 wounds per apple fruit; 2 wounds per banana fruit. 30 microliters of a freshly prepared spore suspension of B. cinerea (estimated 3×10^5 spores/ml) were applied by pipette onto each wound. Subsequently, the spore-suspension was allowed to air-dry for 3 hours. 50 microliters of fungicide suspensions 1-6 were applied by pipette to each wound.
All fruits were kept at room temperature (20° C.).
Replicates: All treatments (1-6) were performed on 6 individual apples and 6 individual bananas with 2 wounds each resulting in 12 wounds per fruit per treatment. The recorded observed antifungal activity is the reduction (in percentages) of the average surface of the rot as observed in the 12 wounds compared to the rot surface of the untreated control.
Observation: All wounds were inspected daily for visual symptoms of fruit rot and/or fungus growth. Rot surface was determined after 5 and 7 days (see Tables 1, 2 and 3). The recorded observed antifungal activity is the surface of the rot.

powdery mildew = test: Powdery mildew on tomato leaf disks; details: for Surface area (%): leaf disk area covered by powdery mildew after 10 days, phosphite 16 mM, sulfur 0.5 g per liter
Experimental: Leaves were taken from 5 to 6 week old tomato plant. Per treatment 5 ml was sprayed over 5 leaves and dried for 1 hour. Circular disks were punched from the treated leaves with a diameter of 11 mm. 5 disks per treatment were put on water agar in 90 mm ø petri dishes. Water agar was made by sterilizing agar-agar (5 g/L, Carl Roth), benzimidazole (30 mg/L, Sigma-Aldrich) and antibiotic tetracycline hydrochloride (25 mg/L, Carl Roth) in water. Disks were infected by brushing powdery mildew spores from an infected leave until disks were visually covered by spores. […] Efficacy was calculated by comparing the treatments against the untreated control. Replicates: 20 disks were used per treatment. All phosphite concentrations were tested at a concentration of 16 mM of phosphite. Formulated sulfur was applied at a dose of 0.5 g sulfur per liter. Formulated sulfur consists of the following elements: Sulfur±50% (w/w); Anionic surfactant<3%; Non-ionic surfactant <3%; Water±44%.

black sigatoka [1] = test: Black sigatoka on banana plants, single leaf test, leaf 3 curative, DITHANE 60 SC; details: for Area infected (%) / Efficacy: 8 DAA, leaf 3 curative, DITHANE 60 SC 5 liter/ha; for Area infected (%): phosphites 2 mol/l at 3 liter/ha; for Efficacy: vs untreated control
Experimental: (§1) A single leaf test was established in a research station located in the community of “Anita Grande,” county of Jimenez, province of Limon, Costa Rica (latitude 10°15′14.15″N, longitude 83°44′20.29″W).
(§2) Every treatment was established in individual plants. Treatments were applied to leaf number 1 to determine their effect as preventive. Leaf position is counted from top to bottom, whereby leaf number 1 is closest to the unfolded leaf. Treatments were distributed systematically to facilitate their location in the field.
(§3) Product applications were done in an area of 10×10 cm, with a special equipment designed to simulate aerial applications. Application was done at 35 pound-force per square inch. Since weather conditions were highly conducive for disease development, and inoculum density was very high, no artificial inoculation was done. All treatments were applied to the same position on the leaf to minimize experimental error. All treatments were applied at the equivalent volume of 25 L ha^−1, as it is done commercially. A total of 3 sprays were applied, application A at Day 0, application B at 7 days after application A (DAA), and application C at day 13 DAA. VOLLEY® 88 OL was sprayed at 5.525 L/ha and the different phosphites were applied at the same PO3 concentration of 2 mol/l and were sprayed at 3 liter/ha.
(§4) For the evaluation of the efficacy, the diseased area that was affected in the 10×10 cm leaf area was recorded. Evaluations were done 23, 30 and 36 DAA. Efficacy was calculated by comparing the treatments against the untreated control.
Similar to Example 8, with the following differences: DITHANE® 60 SC (Dow AgroSciences) at a rate of 5 liter/ha was applied instead of […] and only one measurement was performed at 23 days after application A (DAA).
Similar to Example 9, with the following differences: Treatments and measurements were applied to leaf number 3, to determine their effect as curative, and one measurement was performed at 8 days after application A (DAA).

Penicillium discolor = Penicillium discolor rot on wounded apples cv Gala; details: for Efficacy (%): rot surface area vs untreated control, phosphite 16 mM, natamycin 100 ppm
Experimental: Tested fruit: apples cv Gala from organic origin/SKAL certified. SKAL is a semi-governmental Dutch organization that controls organic production in the Netherlands. Wounds of the apples were checked at day 3. All phosphite concentrations were tested at a concentration of 16 mM of phosphonate. Natamycin (95%, Freda) solo and in combination was tested at a concentration of 100 ppm. […] Used pathogen: Penicillium discolor spore-suspension containing 4*10E6 spores/ml. Application: The fruit peel of the apple was damaged with a cork borer, ø4 mm and depth ˜0.5 cm into the fruit, with 2 wounds per apple. 40 microliter of a freshly prepared spore suspension of P. discolor was applied by pipette onto each wound. Subsequently, the spore-suspension was allowed to air-dry for 4 hours. Then, 50 microliter of a treatment as presented in the list above was applied by pipette to each wound. All fruits were kept at room temperature (20° C.). Wounds of the apples were checked after 4, 7 and 9 days of incubation. The efficacy is calculated by measuring the surface area (square mm) of the rot on the apples, and compared to the untreated control (see Table 4). Replicates: All treatments for the apple experiment were performed on six individual apples with two wounds each resulting in 12 wounds per treatment.

black sigatoka [2] = test: Black sigatoka on banana plants, single leaf test, leaf 1 preventive, VOLLEY 88 OL; details: for Area infected (%) / Efficacy: VOLLEY 88 OL 5.525 L/ha, phosphites 2 mol/l at 3 liter/ha; for Efficacy: vs untreated control
Experimental: as §1, §2, §3
Mixture of products was done with an electric stirrer (DEWALT® General Purpose, model DW9107), equipped with a standard propel.
as §4

[3] = Table 1, phosphonate Concentration 1, mandipropamid control
[4] = Table 1, phosphonate Concentration 2, mandipropamid control
[5] = Table 1, phosphonate Concentration 3, mandipropamid control
[6] = Table 2, phosphonate Concentration 2, mefenoxam control

Compound | Effect on fungicidal attack of Botrytis on apple and banana (Botrytis cinerea; [3]) | Effect on fungicidal attack of Botrytis on apple and banana (Botrytis cinerea; [4]) | Effect on fungicidal attack of Botrytis on apple and banana (Botrytis cinerea; [5]) | Effect on fungicidal attack of Botrytis on apple and banana (Botrytis cinerea; [6]) | Surface area (%) (powdery mildew) | Area infected (%) (black sigatoka [1]) | Efficacy (black sigatoka [1]) | Efficacy (%) (Penicillium discolor; Day 4) | Efficacy (%) (Penicillium discolor; Day 7) | Efficacy (%) (Penicillium discolor; Day 9) | Area infected (%) (black sigatoka [2]; 23 DAA) | Efficacy (black sigatoka [2]; 23 DAA) | Area infected (%) (black sigatoka [2]; 30 DAA) | Efficacy (black sigatoka [2]; 30 DAA) | Area infected (%) (black sigatoka [2]; 36 DAA) | Efficacy (black sigatoka [2]; 36 DAA) | further results
N.N.O=[PH](O)O [(NH4)2HPO3] | d | c | b | c | 66.32 | 9.2 | 58.6 | 71 | 60 | 55 | 9.8 | 48.4 | 26.2 | 39.1 | 34.0 | 34.4 | –
disodium hydrogen phosphite [Na2HPO3] | d | c | b | c | 51.20 | 15.4 | 30.6 | 88 | 74 | 64 | 18.8 | 1.1 | 31.0 | 27.9 | 38.0 | 26.9 | Effect on fungicidal attack of Botrytis on apple and banana (Botrytis cinerea; Table 3, Na2HPO3 part, Concentration 1, mandipropamid control): d; Effect on fungicidal attack of Botrytis on apple and banana (Botrytis cinerea; Table 3, Na2HPO3 part, Concentration 2, mandipropamid control): c; Effect on fungicidal attack of Botrytis on apple and banana (Botrytis cinerea; Table 3, Na2HPO3 part, Concentration 3, mandipropamid control): b; Increase of the fungal efficacy of sulphur compared with other phosphite salts (powdery mildew; conclusion from Table 7): increases the fungal efficacy of sulphur the best; Increase of the fungal efficacy of DITHANE 60 SC compared with other phosphite salts (black sigatoka [1]; conclusion from Table 10, curative): increases the fungal efficacy of DITHANE® 60 SC the best; Increase of the fungal efficacy of natamycin compared with other phosphite salts (Penicillium discolor; equimolar phosphite concentrations, days 4, 7, 9): increases the fungal efficacy of natamycin the best at all time points; Increase of the fungal efficacy of VOLLEY 88 OL compared with other phosphite salts (black sigatoka [2]; conclusion from Table 8): increases the fungal efficacy of VOLLEY® 88 OL the best
O=[PH]([O-])[O-].[K+].[K+] [Treatment K2HPO3] | d | c | b | c | 58.68 | 12.6 | 43.2 | 59 | 27 | 22 | 9.2 | 51.6 | 26.4 | 38.6 | 33.0 | 26.5 | –
